This is an account of results in ChEMBL document CHEMBL5465560, “Selectivity Literature for EUbOPEN Chemogenomic Library” (2024).

The target of assay [1] is Serine/threonine-protein kinase B-raf (Homo sapiens) (UniProt P15056). To be noted: at 10 µM.
Assay [2] concerns the target T1, Serine/threonine-protein kinase DCLK2 (Homo sapiens) (UniProt Q8N568).
T1 sequence (whole entry): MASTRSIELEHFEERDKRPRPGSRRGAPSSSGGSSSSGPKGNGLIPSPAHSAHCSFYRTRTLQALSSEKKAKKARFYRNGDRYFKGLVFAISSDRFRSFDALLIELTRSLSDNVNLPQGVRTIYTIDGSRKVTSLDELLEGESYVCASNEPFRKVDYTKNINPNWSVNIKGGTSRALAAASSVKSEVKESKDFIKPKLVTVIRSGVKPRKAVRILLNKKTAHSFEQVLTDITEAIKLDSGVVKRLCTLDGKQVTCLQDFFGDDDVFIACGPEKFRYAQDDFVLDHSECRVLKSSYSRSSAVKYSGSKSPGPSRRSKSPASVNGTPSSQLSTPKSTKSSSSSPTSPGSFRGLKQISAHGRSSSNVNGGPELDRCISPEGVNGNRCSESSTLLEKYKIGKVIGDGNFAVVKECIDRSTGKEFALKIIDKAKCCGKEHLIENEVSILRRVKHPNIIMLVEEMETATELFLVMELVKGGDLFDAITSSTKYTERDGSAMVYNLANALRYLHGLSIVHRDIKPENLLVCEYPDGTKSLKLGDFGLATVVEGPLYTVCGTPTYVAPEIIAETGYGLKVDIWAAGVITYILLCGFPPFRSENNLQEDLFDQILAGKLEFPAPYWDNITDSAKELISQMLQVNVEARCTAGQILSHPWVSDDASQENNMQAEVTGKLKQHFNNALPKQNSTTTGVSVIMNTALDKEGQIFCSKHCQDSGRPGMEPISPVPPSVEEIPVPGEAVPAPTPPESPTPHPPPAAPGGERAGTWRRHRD
Kind of assay: Selectivity interaction (KinomeScan (DiscoverX)) EUB0001079a DCLK2. The settings on record: at 1 µM.

Assay [3] has as its target Alpha-2B adrenergic receptor (Homo sapiens) (UniProt P18089). The assay can be described thus: Selectivity interaction (GPCR panel (PDSP screen)) EUB0001079a ADRA2B. The settings on record: at 10 µM.
For a further assay, the target named is Insulin receptor (Homo sapiens, UniProt P06213). The assay can be described thus: Selectivity interaction (Millipore kinase profiler) EUB0000124b INSR. The settings on record: at 10 µM.
Assay [4] has as its target T2, Atypical kinase COQ8B, mitochondrial (Homo sapiens) (UniProt Q96D53).
T2 sequence (whole entry): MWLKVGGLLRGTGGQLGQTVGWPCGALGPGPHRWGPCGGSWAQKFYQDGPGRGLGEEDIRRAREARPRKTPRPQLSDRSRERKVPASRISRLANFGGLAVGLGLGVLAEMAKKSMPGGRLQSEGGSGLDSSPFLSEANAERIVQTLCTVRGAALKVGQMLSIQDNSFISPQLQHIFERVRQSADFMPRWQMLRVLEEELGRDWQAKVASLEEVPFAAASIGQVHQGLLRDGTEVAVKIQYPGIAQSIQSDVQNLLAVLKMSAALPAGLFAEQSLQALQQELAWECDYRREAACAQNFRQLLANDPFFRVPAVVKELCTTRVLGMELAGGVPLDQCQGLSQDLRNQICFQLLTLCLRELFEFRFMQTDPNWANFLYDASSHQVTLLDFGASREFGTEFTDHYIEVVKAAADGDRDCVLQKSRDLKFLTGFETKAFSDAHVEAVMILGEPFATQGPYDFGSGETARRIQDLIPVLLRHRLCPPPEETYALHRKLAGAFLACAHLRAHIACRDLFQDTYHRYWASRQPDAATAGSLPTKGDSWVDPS
The assay can be described thus: Selectivity interaction (KinomeScan (DiscoverX)) EUB0000655a ADCK4. The settings on record: at 10 µM.

Assay [5] deals with Serine/threonine-protein kinase 24 (Homo sapiens) (UniProt Q9Y6E0). Kind of assay: Selectivity interaction (KinomeScan (DiscoverX)) EUB0000666a STK24. To be noted: at 10 µM.
The target of assay [6] is T3, TGF-beta receptor type-1 (Homo sapiens) (UniProt P36897).
T3 sequence (whole entry): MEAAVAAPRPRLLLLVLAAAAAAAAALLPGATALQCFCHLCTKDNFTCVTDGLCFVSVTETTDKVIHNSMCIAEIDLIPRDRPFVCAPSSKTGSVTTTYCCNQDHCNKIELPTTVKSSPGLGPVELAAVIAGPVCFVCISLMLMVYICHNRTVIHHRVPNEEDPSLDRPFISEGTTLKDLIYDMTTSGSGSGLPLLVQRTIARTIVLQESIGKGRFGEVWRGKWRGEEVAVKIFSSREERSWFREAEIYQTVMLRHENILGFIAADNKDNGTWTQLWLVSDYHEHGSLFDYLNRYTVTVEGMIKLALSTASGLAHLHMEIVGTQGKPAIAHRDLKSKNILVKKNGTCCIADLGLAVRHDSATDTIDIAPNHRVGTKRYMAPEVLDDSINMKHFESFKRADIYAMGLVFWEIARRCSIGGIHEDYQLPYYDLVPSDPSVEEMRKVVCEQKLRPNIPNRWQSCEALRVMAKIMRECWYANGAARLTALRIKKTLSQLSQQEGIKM
The assay can be described thus: Selectivity interaction (KinomeScan (DiscoverX)) EUB0000666a TGFBR1. To be noted: at 10 µM.

In assay [7] the target is Mitogen-activated protein kinase 9 (Homo sapiens, UniProt P45984). Kind of assay: Selectivity interaction (ActivX KiNativ screen (kinase selectivity in THP-1 cell lysates)) EUB0000639a MAPK9. Format: subcellular. The settings on record: lysate, at 0.04 µM.
In assay [8] the target is T4, Beta-adrenergic receptor kinase 1 (Homo sapiens) (UniProt P25098).
T4 sequence (whole entry): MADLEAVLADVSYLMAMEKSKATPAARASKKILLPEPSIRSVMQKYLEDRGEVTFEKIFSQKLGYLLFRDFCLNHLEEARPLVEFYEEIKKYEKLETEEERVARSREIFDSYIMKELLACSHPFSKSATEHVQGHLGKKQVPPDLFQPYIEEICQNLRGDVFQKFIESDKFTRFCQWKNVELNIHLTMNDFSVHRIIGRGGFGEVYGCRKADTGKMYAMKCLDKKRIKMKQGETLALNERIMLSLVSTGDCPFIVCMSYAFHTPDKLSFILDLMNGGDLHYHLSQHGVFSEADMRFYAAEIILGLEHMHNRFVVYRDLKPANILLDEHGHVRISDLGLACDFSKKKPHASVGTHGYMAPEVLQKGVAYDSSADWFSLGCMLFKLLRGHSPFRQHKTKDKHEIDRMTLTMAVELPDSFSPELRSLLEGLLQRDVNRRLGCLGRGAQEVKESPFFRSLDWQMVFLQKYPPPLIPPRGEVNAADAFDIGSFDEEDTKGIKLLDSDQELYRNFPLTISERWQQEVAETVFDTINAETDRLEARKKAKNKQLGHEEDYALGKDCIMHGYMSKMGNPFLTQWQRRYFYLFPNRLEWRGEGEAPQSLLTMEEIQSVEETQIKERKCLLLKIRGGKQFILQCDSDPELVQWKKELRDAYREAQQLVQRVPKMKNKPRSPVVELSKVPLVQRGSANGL
Kind of assay: Selectivity interaction (Kinase panel (Invitrogen)) EUB0000639a ADRBK1. The settings on record: at 200 nM.

Sequence of Alpha-2B adrenergic receptor (Homo sapiens) (P18089 whole entry): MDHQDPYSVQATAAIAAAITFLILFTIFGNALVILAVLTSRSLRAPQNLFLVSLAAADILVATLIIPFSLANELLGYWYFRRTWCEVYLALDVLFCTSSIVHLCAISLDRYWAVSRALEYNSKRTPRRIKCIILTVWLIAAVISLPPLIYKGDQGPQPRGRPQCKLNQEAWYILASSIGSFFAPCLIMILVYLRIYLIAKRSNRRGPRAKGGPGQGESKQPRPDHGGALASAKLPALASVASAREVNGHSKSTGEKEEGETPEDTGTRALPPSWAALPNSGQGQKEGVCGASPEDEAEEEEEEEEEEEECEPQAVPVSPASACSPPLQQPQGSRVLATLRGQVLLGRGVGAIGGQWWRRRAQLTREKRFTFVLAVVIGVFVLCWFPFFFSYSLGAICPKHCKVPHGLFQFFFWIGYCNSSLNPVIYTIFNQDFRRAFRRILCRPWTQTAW
Sequence of Insulin receptor (P06213 28-758 limits assumed): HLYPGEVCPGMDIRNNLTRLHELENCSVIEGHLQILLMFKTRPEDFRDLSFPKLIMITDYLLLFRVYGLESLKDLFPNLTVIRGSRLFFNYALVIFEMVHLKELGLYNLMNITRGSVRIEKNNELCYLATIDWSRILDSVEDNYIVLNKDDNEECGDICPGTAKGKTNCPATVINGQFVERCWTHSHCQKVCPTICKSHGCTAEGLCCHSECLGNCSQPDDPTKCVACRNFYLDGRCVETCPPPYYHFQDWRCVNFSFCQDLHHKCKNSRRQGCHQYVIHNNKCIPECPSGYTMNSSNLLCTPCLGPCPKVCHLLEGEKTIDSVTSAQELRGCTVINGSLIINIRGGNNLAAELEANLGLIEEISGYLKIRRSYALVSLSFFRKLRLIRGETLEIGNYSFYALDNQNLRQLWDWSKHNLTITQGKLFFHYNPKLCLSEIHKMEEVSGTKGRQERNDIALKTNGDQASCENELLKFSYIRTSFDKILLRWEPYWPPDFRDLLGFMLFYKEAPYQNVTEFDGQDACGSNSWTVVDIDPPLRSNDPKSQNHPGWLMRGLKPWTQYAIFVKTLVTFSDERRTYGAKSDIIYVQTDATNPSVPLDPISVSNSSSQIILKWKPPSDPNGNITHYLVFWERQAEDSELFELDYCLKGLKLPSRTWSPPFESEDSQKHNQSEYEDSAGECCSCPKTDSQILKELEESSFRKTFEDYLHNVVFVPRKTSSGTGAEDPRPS
Sequence of Insulin receptor (P06213 763-1382 limits assumed): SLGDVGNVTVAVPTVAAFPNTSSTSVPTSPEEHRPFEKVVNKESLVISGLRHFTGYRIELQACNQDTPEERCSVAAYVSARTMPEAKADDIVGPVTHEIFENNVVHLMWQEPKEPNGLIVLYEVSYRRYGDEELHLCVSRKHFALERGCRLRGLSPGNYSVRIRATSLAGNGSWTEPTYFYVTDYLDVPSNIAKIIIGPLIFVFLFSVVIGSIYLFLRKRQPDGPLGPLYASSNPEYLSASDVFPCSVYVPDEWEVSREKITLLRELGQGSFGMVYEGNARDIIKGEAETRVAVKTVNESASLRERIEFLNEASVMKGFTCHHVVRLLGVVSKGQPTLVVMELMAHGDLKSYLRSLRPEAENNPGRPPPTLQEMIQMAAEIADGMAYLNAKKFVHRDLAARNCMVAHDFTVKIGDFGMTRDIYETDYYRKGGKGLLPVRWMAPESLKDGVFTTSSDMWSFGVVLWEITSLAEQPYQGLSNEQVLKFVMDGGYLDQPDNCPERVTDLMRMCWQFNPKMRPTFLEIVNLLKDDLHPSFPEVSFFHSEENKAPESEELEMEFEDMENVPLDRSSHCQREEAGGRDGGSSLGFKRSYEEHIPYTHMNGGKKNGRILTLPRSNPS
Sequence of Mitogen-activated protein kinase 9 (P45984 whole entry, looked up): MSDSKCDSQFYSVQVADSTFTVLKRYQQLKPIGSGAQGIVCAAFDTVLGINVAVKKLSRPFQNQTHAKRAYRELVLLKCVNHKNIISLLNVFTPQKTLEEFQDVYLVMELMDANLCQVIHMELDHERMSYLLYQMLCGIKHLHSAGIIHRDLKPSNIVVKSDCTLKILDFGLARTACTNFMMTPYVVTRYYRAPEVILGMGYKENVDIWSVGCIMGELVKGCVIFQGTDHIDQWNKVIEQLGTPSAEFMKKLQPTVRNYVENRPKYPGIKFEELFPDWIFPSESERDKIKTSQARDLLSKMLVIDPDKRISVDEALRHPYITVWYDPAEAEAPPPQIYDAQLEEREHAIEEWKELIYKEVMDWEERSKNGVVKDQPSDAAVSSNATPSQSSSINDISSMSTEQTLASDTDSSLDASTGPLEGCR
Sequence of Serine/threonine-protein kinase 24 (Homo sapiens) (Q9Y6E0 whole entry, looked up): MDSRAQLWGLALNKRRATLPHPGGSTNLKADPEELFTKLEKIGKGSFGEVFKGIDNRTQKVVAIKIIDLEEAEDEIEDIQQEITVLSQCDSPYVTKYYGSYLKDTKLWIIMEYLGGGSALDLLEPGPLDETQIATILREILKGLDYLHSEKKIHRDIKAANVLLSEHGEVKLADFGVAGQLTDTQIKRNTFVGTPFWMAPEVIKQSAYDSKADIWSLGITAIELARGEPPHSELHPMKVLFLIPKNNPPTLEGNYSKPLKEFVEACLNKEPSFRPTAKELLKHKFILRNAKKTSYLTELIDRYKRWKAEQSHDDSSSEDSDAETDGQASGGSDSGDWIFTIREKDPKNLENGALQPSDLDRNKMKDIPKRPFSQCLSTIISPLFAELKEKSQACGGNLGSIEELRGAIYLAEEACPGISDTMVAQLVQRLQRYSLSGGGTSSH
Sequence of Serine/threonine-protein kinase B-raf (Homo sapiens) (P15056 whole entry): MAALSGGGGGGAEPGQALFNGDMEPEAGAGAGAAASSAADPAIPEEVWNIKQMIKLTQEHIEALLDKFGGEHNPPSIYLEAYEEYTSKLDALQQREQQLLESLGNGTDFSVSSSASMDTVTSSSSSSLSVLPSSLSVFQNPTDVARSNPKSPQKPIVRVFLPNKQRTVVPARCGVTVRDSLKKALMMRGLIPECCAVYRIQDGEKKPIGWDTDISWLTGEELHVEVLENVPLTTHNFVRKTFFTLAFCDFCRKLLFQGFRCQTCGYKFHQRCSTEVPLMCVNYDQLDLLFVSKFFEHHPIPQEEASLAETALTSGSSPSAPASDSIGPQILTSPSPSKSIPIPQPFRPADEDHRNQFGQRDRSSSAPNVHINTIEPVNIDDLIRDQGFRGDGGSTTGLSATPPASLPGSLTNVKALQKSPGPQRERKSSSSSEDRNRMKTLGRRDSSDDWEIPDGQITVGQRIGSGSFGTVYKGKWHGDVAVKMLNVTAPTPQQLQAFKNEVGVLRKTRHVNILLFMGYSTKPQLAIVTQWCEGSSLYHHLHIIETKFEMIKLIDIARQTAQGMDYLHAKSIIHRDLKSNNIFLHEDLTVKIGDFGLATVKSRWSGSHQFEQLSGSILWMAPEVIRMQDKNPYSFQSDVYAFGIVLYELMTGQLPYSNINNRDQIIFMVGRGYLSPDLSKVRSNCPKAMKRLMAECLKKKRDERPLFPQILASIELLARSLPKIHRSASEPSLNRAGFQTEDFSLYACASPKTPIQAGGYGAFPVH

`Cc1cc([C@@H](C)Nc2ccccc2C(=O)O)c2nc(N3CCOCC3)cc(=O)n2c1` [AZD-6482] showed a % of control in assay [1] of 100%. In assay [2], `Nc1cnc(N2CCc3cc(S(=O)(=O)Nc4c(F)cc(Cl)cc4F)cc(N4CCCC4=O)c32)nc1` [TP-020n] displayed a % of control of 100%. Further, in [3], the % of inhibition stood at 0.99%. In turn, `CC(=O)Nc1cccc(-n2c(=O)n(C3CC3)c(=O)c3c(Nc4ccc(I)cc4F)n(C)c(=O)c(C)c32)c1` returned a % of control on Insulin receptor of 129%. The compound `CN(C)CCOc1ccc(-c2nc(-c3ccncc3)c(-c3ccc4c(c3)CC/C4=N\O)[nH]2)cc1` returned a % of control in assay [4] of 45%. On to `O=C(NOC[C@H](O)CO)c1ccc(F)c(F)c1Nc1ccc(I)cc1F`, for which the % of control was found to be 88% in assay [5] and 100% in assay [6]. With `CC[C@@H]1[C@H](F)C(=O)N[C@@H]1COc1nccc2cc(C(N)=O)c(OC)cc12` [ZIMLOVISERTIB], the figures for the % of inhibition in assay [7] and in [8] were -18.4% and 0.284%, respectively.
